Among the data in patent US20170001990A1 (Genentech, Inc., priority 2014, published 2017) are IC50 values, retold here.

One may read the IC50 as the midpoint of a concentration-inhibition curve.

The target of the experiment is Human recombinant carboxy-terminal his-tagged LDHA (amino acids 2-332) (Homo sapiens, UniProt P00338). The experiment in a line: LDHA enzyme inhibition assay (NADH fluorescence). The settings on record: LDHA IC50 (μM), 1 nM LDHA, NADH and pyruvate, stereochemistry of tested sample given.
Consider `O=C1CC(c2ccsc2)(c2cccc(Oc3ccc(F)c(C(F)F)c3)n2)NC(=O)C1Sc1ccccc1Cl` (stereo not shown) [Example 152, 3-(2-chlorophenyl)sulfanyl-6-[6-[3-(difluoromethyl)-4-fluoro-phenoxy]-2-pyridyl]-6-(3-thienyl) piperidine-2,4-dione], for which the IC50 was 0.006 µM.

As for `CN(c1ccc(Cl)cc1)c1cccc(C2(c3ccsc3)CC(=O)C(Sc3ccccc3Cl)C(=O)N2)n1` (stereo not shown) [Example 279, 6-(6-((4-chlorophenyl) (methyl)amino)pyridin-2-yl)-3-((2-chlorophenyl)thio)-6-(thiophen-3-yl) piperidine-2,4-dione], the IC50 turned out to be 0.272 µM.

For `COc1cc(Cc2cccc(C3(c4ccsc4)CC(=O)C(Sc4ccccc4Cl)C(=O)N3)n2)ccc1F` (stereo not shown) [Example 259, 3-((2-chlorophenyl)thio)-6-(6-(4-fluoro-3-methoxy-benzyl)pyridin-2-yl)-6-(thiophen-3-yl)piperidine-2,4-dione], the IC50 came to 0.011 µM. Under `O=C1CC(c2ccsc2)(c2cccc(Oc3ccccc3Br)n2)NC(=O)C1Sc1ccccc1Cl` (single isomer, unassigned) [Example 116, 6-[6-(2-bromophenoxy)-2-pyridyl]-3-(2-chlorophenyl) sulfanyl-6-(3-thienyl) piperidine-2,4-dione] stands 0.376 µM; under `CC(Oc1cccc(C2(c3ccsc3)CC(=O)C(Sc3ccccc3Cl)C(=O)N2)n1)c1ccc(Cl)cc1` (stereo not shown) [Example 311, 6-(6-(1-(4-chlorophenyl)ethoxy)pyridin-2-yl)-3-((2-chlorophenyl)thio)-6-(thiophen-3-yl)piperidine-2,4-dione], 0.59 µM.

For the compound `O=C1CC(c2ccsc2)(c2cccc(Nc3cccc(CO)c3)n2)NC(=O)C1Sc1ccccc1Cl` (stereo not shown) [Example 290], the IC50 worked out at 0.017 µM. Consider `COc1cc(F)cc(Cc2cccc(C3(c4ccsc4)CC(=O)C(Sc4ccccc4Cl)C(=O)N3)n2)c1` (single isomer, unassigned) [Example 171, 3-(2-chlorophenyl)sulfanyl-6-[6-[(3-fluoro-5-methoxy-phenyl)methyl]-2-pyridyl]-6-(3-thienyl) piperidine-2,4-dione], for which the IC50 amounted to 0.101 µM. For the compound `O=C1CC(c2ccsc2)(c2cccc(Oc3ccc4ncccc4c3)n2)NC(=O)C1Sc1ccccc1Cl` (single isomer, unassigned) [Example 120, 3-(2-chlorophenyl)sulfanyl-6-[6-(6-quinolyloxy)-2-pyridyl]-6-(3-thienyl) piperidine-2,4-dione], the IC50 amounted to 0.016 µM. For `CC(C)(O)CCOc1cccc(C2(c3ccsc3)CC(=O)C(Sc3ccccc3Cl)C(=O)N2)n1` (single isomer, unassigned) [Example 170, 3-(2-chlorophenyl)sulfanyl-6-[6-(3-hydroxy-3-methyl-butoxy)-2-pyridyl]-6-(3-thienyl)piperidine-2,4-dione], the IC50 was determined as 0.145 µM. Under `O=C1CC(c2ccsc2)(c2cccc(OC3CCC3)n2)NC(=O)C1Sc1ccccc1Cl` (stereo not shown) [Example 222, 3-(2-chlorophenyl)sulfanyl-6-[6-(cyclobutoxy)-2-pyridyl]-6-(3-thienyl) piperidine-2,4-dione] stands 0.322 µM; under `CN(c1cccc(CO)c1)c1cccc(C2(c3ccsc3)CC(=O)C(Sc3ccccc3Cl)C(=O)N2)n1` (stereo not shown) [Example 310, 3-((2-chlorophenyl)thio)-6-(6-((3-(hydroxymethyl)phenyl)(methyl)amino)pyridin-2-yl)-6-(thiophen-3-yl)piperidine-2,4-dione], 0.365 µM. As for `O=C1CC(c2ccsc2)(c2cccc(Oc3cccc(C(F)(F)F)c3)n2)NC(=O)C1Sc1ccccc1Cl` (stereo not shown) [Example 169, 3-(2-chlorophenyl)sulfanyl-6-(3-thienyl)-6-[6-[3-(trifluoromethyl)phenoxy]-2-pyridyl]piperidine-2,4-dione], the IC50 came to 0.01 µM.

With `O=C1CC(c2ccsc2)(c2cccc(Cc3ccc(F)c(F)c3)n2)NC(=O)C1Sc1ccccc1Cl` (single isomer, unassigned) [Example 281, 3-((2-chlorophenyl)thio)-6-(6-(3,4-difluorobenzyl)pyridin-2-yl)-6-(thiophen-3-yl)piperidine-2,4-dione], the IC50 stood at 0.189 µM.
